In patent publication US8207314B2, “Tumor antigens for prevention and/or treatment of cancer” (Sanofi Pasteur Limited, priority 2003, dated 2012):

Tests used:
[1] = test system: Human PBMC from an HLA-A2.1 positive donor; test: IFN-γ ELISPOT of human T cells activated with BFY3 peptide pools and deconvolution to single peptides; type: cell-based; conditions: BFY3 nonamer peptides; listing = result
Text: Human PBMC from an HLA-A2.1 positive donor designated AP31 were activated with autologous dendritic cells pulsed with different pools of 9-mer peptides from the BFY3 antigen (see Table I for list). The activated T cells were re-stimulated after 12 days with activated autologous CD40-ligand-activated B cells pulsed with the same respective peptide pools for another 8 to 10 days. This secondary activation was repeated 2 more time for a total of 4 stimulations. The activated T cells were isolated after the 4th stimulation and subjected to ELISPOT analysis for human IFN-γ production against their respective BFY3 peptide pools as shown. The blue bars show reactivity against the BFY3 peptide pools and the red bars are for an HLA-A2.1-binding HIV peptide as a negative control. Standard deviations are indicated. The experiment was repeated 2 times on activated T cells from different rounds of peptide stimulation with the similar results (FIG. 17A).
The BFY3 peptide pools were deconvoluted and studied in IFN-γ ELISPOT assays. Stimulation was performed as described earlier for the other antigens described. After 4 rounds of stimulation, the T cells from each culture were harvested and subjected to ELISPOT analysis for IFN-γ production with each individual peptide in each pool. FIG. 17B illustrates individual peptide reactivity for each specific pool.

[2] = test system: targets pulsed with corresponding peptide pools; test: CTL killing of targets pulsed with BFY3 peptide pools or peptides; type: cell-based, human; conditions: for Peptides eliciting CTL activity (peptide pulsed targets): BFY3 nonamer peptides, listing = result; for recognition of single peptides by CTL: BFY3 peptides, peptide-pulsed targets
Method: (§1) In addition to ELISPOT analysis, human T cells activated by BFY3 peptides were assayed for reactivity. Ten pools of peptides consisting often peptides per pool used to generate CTL. These 10 groups of effectors used to kill targets pulsed with corresponding peptide pools. […]

peptide-loaded T2 cells = test: 51Cr-release CTL assay with BFA5 peptide-activated human T cells; type: cell-based; conditions: for CTL activity in T cells from both donors: donors AP10 and AP31
Method: In addition to ELISPOT analysis, human T cells activated by BFA5 peptides were assayed to determine their ability to function as CTL. The cells were activated using peptide-pulsed dendritic cells followed by CD40 ligand-activated B cells (5 rounds of stimulation). The experiment shown was performed with isolated PBMC from HLA-A*0201^+ donor AP31. Isolated T cells were tested in ^51Cr-release assays using peptide-loaded T2 cells. The % specific lysis at a 10:1, 5:1, and 1:1 T-cell to target ratio is shown for T2 cells pulsed with either pools of BFA5/NYBR-1 peptides or with individual peptides. […] CTL activity (percent specific lysis) induced by the control HIV peptide was generally <10%. Similar results were obtained with another PBMC donor expressing HLA-A*0201 (AP10). […]

HLA-A*0201 human T cells = test: IFN-γ ELISPOT of human T cells activated with BFA5/NYBR-1 peptide pools and single peptides; type: cell-based; conditions: for IFN-γ secretion in T cells from both donors: donors AP10 and AP31; for BFA5 peptides eliciting high IFN-γ release (>200 spots/100,000 cells): listing = result
Method: A library of 100 peptides from the BFA5/NYBR-1 coding sequence that are predicted to be medium to high binders to HLA-A*0201 were designed using Rammensee and Parker algorithms. The library was sub-divided into 10 pools of ten peptides (see Table XI), and each pool was used to activate 10 different T cell cultures after pulsing peptides on to mature autologous dendritic cells.
ELISPOT analysis was performed on human T-cell cultures activated through four rounds of stimulation with each pool of BFA5 peptides. In FIG. 13A, the numbers under the X-axis indicate the number of each peptide pool (1-10). Reactivity against a CMV pp65 peptide, and a Flu matrix peptide were used as positive controls for T-cell activation in the experiments. Each experiment was performed with PBMC and dendritic cells from a single HLA-A*0201^+ donor designated as “AP10”. […] Similar results were obtained for both BFA4 and BFA5/NYBR-1 with a different HLA-A*0201. […] Cultures having a reading of 600 spots have more than this number of spots.
A large number of the BFA5 peptide pools of are reactive as shown by the high levels of IFN-γ production (FIG. 13A). Each reactive peptide pool was then separated into individual peptides and analyzed for immunogenicity using ELISPOT analysis to isolate single reactive BFA5 peptides. […] Similar results were obtained in two independent PBMC culture experiments.

BFA4 = test: Rabbit antibody titers after immunization with BFA4 22-mer peptides; type: in vivo
Text: For monitoring purposes, rabbit anti-BFA4 polyclonal antibodies were generated. Six peptides (22-mers) were designed and synthesized to elicit antibody response to BFA4, as shown below:
Rabbits were immunized with the peptides, serum was isolated, and the following antibody titers were observed: […]

[3] = test system: peptide-loaded human T2 lymphoma cell targets; test: CTL killing of BFA4 peptide-pulsed target cells; type: cell-based; conditions: single BFA4 peptides, listing = result
[4] = test system: Non-transfected CosA2 cells; test: Zeocin selection of non-transfected cells; type: cell-based; conditions: for confluency of surviving cells: three weeks
Method: A stable transfection study was initiated to obtain stable clones of BFA4 expressing COS A2 cells. These cells are useful for in vitro stimulation assays pcDNA 3.1 zeo^R/BFA4 (2.5 μg and 20 μg), and pcDNA 3.1 zeo^R/BFA4/MycHis tag (2.5 μg) were used to study expression of BFA4). pGL3 Luciferase (2.5 μg) was used as a control vector to monitor transfection efficiency. The Gene porter reagent was used to facilitate transfection of DNA vectors. After 48 h post-transfection, whole cell extract were prepared by scraping cells in the cell lysis reagent (200 μl) and 1 cycle of freeze-thaw at −20° C./37° C. for first experiment. Transfected cells obtained from the second experiment were trypsinized, frozen stock established and cells were plated in increasing concentrations of Zeocin (0, 250, 500, 750 and 1000 μg/ml). Non-transfected CosA2cells survived at 60-80% confluency for three weeks at 100 μg/ml (Zeocin) and 10% confluency at 250 μg/ml (Zeocin).

[5] = test system: CosA2 cells transfected with BFY3; test: CTL killing of BFY3-transfected cells; type: cell-based; conditions: CTL generated from BFY3 peptide pools
Method: as §1

[6] = first-listed rabbit of the pair
[7] = second-listed rabbit of the pair

## LLGGVLRRA [CLP 3369]
[1]
  Peptides eliciting strong IFN-γ ELISPOT activity: LLGGVLRRA
[2]
  Peptides eliciting CTL activity (peptide pulsed targets): LLGGVLRRA
  recognition of single peptides by CTL: Moderately recognized

## ELCSVRLTL [CLP 3050]
peptide-loaded T2 cells
  CTL activity in T cells from both donors: induce
HLA-A*0201 human T cells
  IFN-γ secretion in T cells from both donors: induce

## SPKATEETGQAQSGQANCQGLS [CLP2590]
BFA4; [6]
  Titer (Bleed 2): 12800
  Titer (Final Bleed): 40000, 40000
BFA4; [7]
  Titer (Bleed 2): 6400
  Titer (Final Bleed): 40000, 40000

## ASLGLLTPV [CLP 2482]
[3]
  Strong CTL Killing (listed as highly immunoreactive peptide): ASLGLLTPV

## ANGASKEKTKAPPNVKNEGPLNV [CLP2594]
BFA4; [6]
  Titer (Bleed 2): 409600, 409600
  Titer (Final Bleed): 320000, 320000
BFA4; [7]
  Titer (Bleed 2): 409600, 409600
  Titer (Final Bleed): 320000, 320000

## Cc1c(N)nc([C@H](CC(N)=O)NC[C@H](N)C(N)=O)nc1C(=O)N[C@H](C(=O)N[C@H](C)[C@@H](O)[C@H](C)C(=O)N[C@H](C(=O)NCCC1=N[C@@H](c2nc(C(=O)NCCCCN=C(N)N)cs2)CS1)[C@@H](C)O)[C@@H](O[C@@H]1O[C@@H](CO)[C@@H](O)[C@H](O)[C@@H]1O[C@H]1O[C@H](CO)[C@@H](O)[C@H](OC(N)=O)[C@@H]1O)c1cnc[nH]1 [Zeocin]
[4]; 100 μg/ml
  confluency of surviving cells: 60-80%
[4]; 250 μg/ml
  confluency of surviving cells: 10%
[4]; 500-1000 μg/ml, after three weeks
  live cells: live cells were not observed

## MLAFSFPAA [CLP 2427]
[3]
  Strong CTL Killing (listed as highly immunoreactive peptide): MLAFSFPAA

## RLNPEALQA [CLP 2499]
[3]
  Strong CTL Killing (listed as highly immunoreactive peptide): RLNPEALQA

## HLARPIYGL [CLP 2486]
[3]
  Strong CTL Killing (listed as highly immunoreactive peptide): HLARPIYGL

## KSQIEPAFH [CLP 3037]
HLA-A*0201 human T cells; Donor AP31
  BFA5 peptides eliciting high IFN-γ release (>200 spots/100,000 cells): KSQEPAFHI

## MLWKLTDNI [CLP 3320]
[1]
  Peptides eliciting strong IFN-γ ELISPOT activity: MLWKLTDNI
[5]
  killing of CosA2 cells transfected with BFY3 by CTL: responsible for this cytotoxicity
[2]
  Peptides eliciting CTL activity (peptide pulsed targets): MLWKLTDNI
  recognition of single peptides by CTL: strongly recognized

## VAKPSEKNSNKSIPALQSSDSG [CLP2591]
BFA4; [6]
  Titer (Bleed 2): 400000, 400000
  Titer (Final Bleed): 320000, 320000
BFA4; [7]
  Titer (Bleed 2): 400000, 400000
  Titer (Final Bleed): 320000, 320000

## LMDMQTFKA [CLP 2983]
peptide-loaded T2 cells
  CTL activity in T cells from both donors: induce
HLA-A*0201 human T cells
  IFN-γ secretion in T cells from both donors: induce

## NLFGGVVNP [CLP 3351]
[1]
  Peptides eliciting strong IFN-γ ELISPOT activity: NLFGGVVNP

## ILSVVAKLL [CLP 3011]
peptide-loaded T2 cells
  CTL activity in T cells from both donors: induce
HLA-A*0201 human T cells
  IFN-γ secretion in T cells from both donors: induce

## NACGLYQKL [CLP 2495]
[3]
  Strong CTL Killing (listed as highly immunoreactive peptide): NACGLYQKL

## ALRICDIEL [CLP 3043]
HLA-A*0201 human T cells; Donor AP10
  BFA5 peptides eliciting high IFN-γ release (>200 spots/100,000 cells): ALRIQDIEL

## SHGFGSPAV [CLP 3407]
[1]
  Peptides eliciting strong IFN-γ ELISPOT activity: SHGFGSPAV

## LNASLLGGV [CLP 3366]
[1]
  Peptides eliciting strong IFN-γ ELISPOT activity: LNASLLGGV

## ATDGMKVSI [CLP 3054]
peptide-loaded T2 cells; Donor AP10, listing = result
  BFA5 peptides inducing CTL lysis of pulsed cells: ATCGMKVSI
HLA-A*0201 human T cells; Donor AP10
  BFA5 peptides eliciting high IFN-γ release (>200 spots/100,000 cells): ATCGMKVSI
